The assay has as its target HLA-B*2705 (Homo sapiens, UniProt P01889, D138H/D201E/E176V/E204Q/G107R/H137Y/K202T/N104T/N87E/Q56L/Q94K/R106L/R155S/R180L/S101D/S121N/S48T/Y140D/Y33H/Y91C). As to the kind of experiment: biochemical. The assay is classed as binding.

The record followed here is paper PMC2701622 (Journal of immunology (Baltimore, Md. : 1950), 2009).

No end group written: not given here.

For `CC(C)C[C@H](NC(=O)[C@H](CCC(=O)O)NC(=O)[C@@H](NC(=O)[C@H](CO)NC(=O)[C@H](CCCCN)NC(=O)[C@H](CCC(N)=O)NC(=O)[C@H](Cc1ccc(O)cc1)NC(=O)[C@H](CCCNC(=N)N)NC(=O)[C@@H](N)CCCNC(=N)N)[C@@H](C)O)C(=O)O` [reference compound], half-maximal inhibition (IC50) was put at 6.2 nM.
In turn, `CC(C)C[C@H](NC(=O)[C@H](CCCNC(=N)N)NC(=O)[C@H](CC(C)C)NC(=O)[C@H](C)NC(=O)[C@H](CCC(=O)O)NC(=O)[C@@H]1CCCN1C(=O)[C@H](Cc1ccccc1)NC(=O)[C@H](CCCNC(=N)N)NC(=O)[C@@H](N)CO)C(=O)O` [reference compound] displayed an IC50 of 12 nM.
The result for ARAALQELL reads 137 nM.
The result for ARKLLLDNL [reference compound] reads 74 nM.
Then ARLFGIRAK [reference compound], with 133 nM; and DRLALLANL [reference compound], with 181 nM; and EREQTLNQL [reference compound], with 2690 nM.
With IRILQRALF [Vpr62–70IF9], the IC50 stood at 14 nM.
Then KRGVFVLGF [Env524–532KF9], with 13 nM.
The result for “KRLAETLAL [KRLAETLAL, reference compound]” reads 165 nM; that for KRLRLIHLL [Rev12–20KL9], 1.1 nM.
The result for KRQQELLRL [Env573–581KL9] reads 69 nM; that for LRQGYRPVF [Env717–725LF9], 52 nM.
MRDHTITLL [reference compound]: the IC50 is 52 nM.
The result for NRAKQVIKL [reference compound] reads 324 nM; that for NRFSVAYML [reference compound], 9.8 nM.
Consider RRAIRGEQL [Vif123–131RL9], for which the IC50 is 28 nM.
Compound RRDNRRGL [Vif172–179RL8] registered an IC50 of 175 nM.
The compound RRHRILDIYL [Nef137–146RL10] displayed a half-inhibitory concentration (IC50) of 1.8 nM. This IC50 lies about 97-fold lower than the previous one.
Then RRIRQGLEL [Env868–876RL9], with 13 nM; and RRISGVDRY [reference compound], with 21 nM; and RRLTARGLL [Nef246–254RL9], with 9.9 nM.
The result for RRPPLLPLLL reads 100 nM; that for RRQDILDLWI [reference compound], 99 nM; that for RRRWQQLL [Rev44–51RL8], 12 nM.
Then RRSKEITVR [reference compound], with 5.5 nM; and RRSPFLQVF, with 14 nM.
Regarding RRSRPSGDL [Nef8–16RL9], inhibition was half-maximal at 351 nM (IC50). Against the preceding compound, the IC50 is about 25-fold higher.
The result for RRYNIIPVL reads 7.9 nM; that for SRHHAFCFR [reference compound], 42 nM.
The result for SRLEILNVL reads 80 nM; that for SRLWPKIQGL, 17 nM.
The result for SRQFGFIVL reads 128 nM; that for SRTPYHVNL, 22 nM; that for SRYDPSISF, 254 nM.
In the case of TRYPTILQL, the IC50 amounted to 97 nM.
The result for YRRWIQLGL [Gag263–271YL9] reads 2.7 nM.
